Measurements from ChEMBL document CHEMBL1629523, “Synthesis and antibacterial activity of C-12 pyrazolinyl spiro ketolides” (2010).
≈ marks a conversion by molar mass, not a printed value.

What was measured:
Assay type in all cases: functional
Streptococcus pneumoniae [1] = test: Antibacterial activity against erythromycin-resistant Streptococcus pneumoniae 1210 by broth microdilution method
Streptococcus pneumoniae [2] = test: Antibacterial activity against erythromycin-resistant Streptococcus pneumoniae 5158 by broth microdilution method
Staphylococcus aureus [3] = test: Antibacterial activity against erythromycin-resistant Staphylococcus aureus 5676 by broth microdilution method
Haemophilus influenzae [4] = test: Antibacterial activity against erythromycin-resistant Haemophilus influenzae 2412 by broth microdilution method
Staphylococcus aureus [5] = test: Antibacterial activity against erythromycin-resistant Staphylococcus aureus AD-08 by broth microdilution method
Staphylococcus aureus [6] = test: Antibacterial activity against erythromycin-susceptible Staphylococcus aureus ATCC 29213 by broth microdilution method
Streptococcus pneumoniae [7] = test: Antibacterial activity against erythromycin-susceptible Streptococcus pneumoniae 2860 by broth microdilution method
Haemophilus influenzae [8] = test: Antibacterial activity against erythromycin-susceptible Haemophilus influenzae 5096 by broth microdilution method
Staphylococcus aureus [9] = test: Antibacterial activity against erythromycin-susceptible Staphylococcus aureus ATCC 6538p by broth microdilution method
Streptococcus pneumoniae [10] = test: Antibacterial activity against erythromycin-resistant Streptococcus pneumoniae 673 by broth microdilution method
Staphylococcus aureus [11] = test: Antibacterial activity against erythromycin-resistant Staphylococcus aureus 5677 by broth microdilution method
Staphylococcus aureus [12] = test: Antibacterial activity against erythromycin-susceptible Staphylococcus aureus 26001 by broth microdilution method

| SMILES | MIC (Streptococcus pneumoniae [1]) [µg/mL] | MIC (Streptococcus pneumoniae [2]) [µg/mL] | MIC (Staphylococcus aureus [3]) [µg/mL] | MIC (Haemophilus influenzae [4]) [µg/mL] | MIC (Staphylococcus aureus [5]) [µg/mL] | MIC (Staphylococcus aureus [6]) [µg/mL] | MIC (Streptococcus pneumoniae [7]) [µg/mL] | MIC (Haemophilus influenzae [8]) [µg/mL] | MIC (Staphylococcus aureus [9]) [µg/mL] | MIC (Streptococcus pneumoniae [10]) [µg/mL] | MIC (Staphylococcus aureus [11]) [µg/mL] | MIC (Staphylococcus aureus [12]) [µg/mL] |
| --- | --- | --- | --- | --- | --- | --- | --- | --- | --- | --- | --- | --- |
| CC[C@H]1OC(=O)[C@H](C)C(=O)[C@H](C)[C@@H](O[C@@H]2O[C@H](C)C[C@H](N(C)C)[C@H]2O)[C@@](C)(OC)C[C@@H](C)C(=O)[C@H](C)[C@@H](O)C12C=NNC2 (some centres not stated) | > 64 | > 64 | 4 (≈ 6.54 µM) | > 8 | 512 (≈ 837 µM) | 0.25 (≈ 0.409 µM) | 0.5 (≈ 0.817 µM) | 0.06 (≈ 0.0981 µM) | 0.25 (≈ 0.409 µM) | > 64 | 8 (≈ 13.1 µM) | 0.12 (≈ 0.196 µM) |
| CC[C@H]1OC(=O)[C@H](C)C(=O)[C@H](C)[C@@H](O[C@@H]2O[C@H](C)C[C@H](N(C)C)[C@H]2O)[C@](C)(OC)C[C@@H](C)C(=O)[C@H](C)[C@@H](O)C12C=NNC2C(=O)OC (some centres not stated) | > 64 | 8 (≈ 11.9 µM) | 4 (≈ 5.97 µM) | > 8 | 256 (≈ 382 µM) | 0.12 (≈ 0.179 µM) | 0.5 (≈ 0.746 µM) | 0.06 (≈ 0.0896 µM) | 0.12 (≈ 0.179 µM) | 8 (≈ 11.9 µM) | 4 (≈ 5.97 µM) | 0.03 (≈ 0.0448 µM) |
| CC[C@H]1OC(=O)[C@H](C)[C@@H](O[C@H]2C[C@@](C)(OC)[C@@H](O)[C@H](C)O2)[C@H](C)[C@@H](O[C@@H]2O[C@H](C)C[C@H](N(C)C)[C@H]2O)[C@](C)(O)C[C@@H](C)C(=O)[C@H](C)[C@@H](O)[C@]1(C)O [ERYTHROMYCIN] | > 32 | > 32 | > 1020 | 4 (≈ 5.45 µM) | > 1020 | 0.5 (≈ 0.681 µM) | 0.25 (≈ 0.341 µM) | 0.06 (≈ 0.0818 µM) | 0.5 (≈ 0.681 µM) | > 32 | > 1020 | ≤ 0.063 |
| CC[C@H]1OC(=O)[C@H](C)C(=O)[C@H](C)[C@@H](O[C@@H]2O[C@H](C)C[C@H](N(C)C)[C@H]2O)[C@](C)(OC)C[C@@H](C)C(=O)[C@H](C)[C@@H](O)C12C=NNC2C (some centres not stated) | > 64 | > 64 | 8 (≈ 12.8 µM) | > 8 | 512 (≈ 818 µM) | 0.5 (≈ 0.799 µM) | 0.5 (≈ 0.799 µM) | 0.06 (≈ 0.0959 µM) | 0.25 (≈ 0.399 µM) | > 64 | 8 (≈ 12.8 µM) | 0.12 (≈ 0.192 µM) |
| CCOC(=O)C1NN=CC12[C@H](O)[C@@H](C)C(=O)[C@H](C)C[C@@](C)(OC)[C@H](O[C@@H]1O[C@H](C)C[C@H](N(C)C)[C@H]1O)[C@@H](C)C(=O)[C@@H](C)C(=O)O[C@@H]2CC (some centres not stated) | > 64 | 8 (≈ 11.7 µM) | 8 (≈ 11.7 µM) | > 8 | 512 (≈ 749 µM) | 0.12 (≈ 0.175 µM) | 0.5 (≈ 0.731 µM) | 0.06 (≈ 0.0877 µM) | 0.12 (≈ 0.175 µM) | 8 (≈ 11.7 µM) | 8 (≈ 11.7 µM) | 0.12 (≈ 0.175 µM) |
| CC[C@H]1OC(=O)[C@H](C)[C@@H](O[C@H]2C[C@@](C)(OC)[C@@H](O)[C@H](C)O2)[C@H](C)[C@@H](O[C@@H]2O[C@H](C)C[C@H](N(C)C)[C@H]2O)[C@](C)(OC)C[C@@H](C)C(=O)[C@H](C)[C@@H](O)[C@]1(C)O [CLARITHROMYCIN] | > 16 | > 16 | > 1020 | 8 (≈ 10.7 µM) | > 1020 | 0.25 (≈ 0.334 µM) | 0.125 (≈ 0.167 µM) | 0.06 (≈ 0.0802 µM) | 0.5 (≈ 0.668 µM) | > 16 | > 1020 | ≤ 0.063 |
